Data as given in patent publication US9902735B2, “Heteroaryl substituted compounds as RORγ inhibitors” (GlaxoSmithKline Intellectual Property Developement Limited, priority 2014, dated 2018).

Assays:
C57BL/6NTac mice [1] = experiment: Imiquimod-induced skin inflammation, ear-only model (ear thickness); type: in vivo, mouse; conditions: for imiquimod-induced ear thickening: oral gavage twice daily, Studies 1-4
Text: (§1) Imiquimod is an immune modifying agent that potently activates specific Toll-like receptors (e.g., TLR7) and induces irritation/inflammation of the skin that requires the IL23R/RORγ/IL17 axis of the immune system (van der Fits et al, (2009) J Immunol; 182:5836-5845; Gray et al, (2013) Nature Immunol; June; 14(6):584-92). The imiquimod-induced skin inflammation model can be used to assess the ability of an RORγ inhibitor to reduce Th17-driven inflammation in mice. For the ear-only skin inflammation model in which ear thickness was measured with digital engineer's calipers (Mitutoyo PK-0505), female wild type C57BL/6NTac mice obtained from Taconic (Hudson, N.Y.) at 8 to 12 wk of age received a daily topical dose of 10 mg of commercially available imiquimod cream (5%) (Aldara; Medicis) distributed over both ears at approximately 11:00 h for up to 4 consecutive days. Alternatively, 72 mg of Aldara was distributed over both ears and the shaved/depiliated back skin of mice at approximately 11:00 h for 3 consecutive days to examine RORγ-dependent gene expression (RNA isolated from both ears using Qiazol followed by clean-up on with the RNeasy protocol (Qiagen, Germantown, Md.); Taqman probe/primer sets for B2M (Mm00437762_ml), IL-17A (Mm00439619_ml), IL-17F (Mm00521423_ml), or IL-22 (Mm00444241_ml) (Thermo Fisher Scientific, Inc., Waltham, Mass.) and ex vivo stimulated (anti-CD3 (2 μg/ml, clone eBio500A2, eBioscience, San Diego, Calif.), anti-CD28 (1 μg/ml, clone 37.51, BD Bioscience, San Jose, Calif.), recombinant mouse IL-13 (20 ng/ml, R&D Systems, Minneapolis, Minn.), and recombinant mouse IL-23 (20 ng/ml, R&D Systems, Minneapolis, Minn.) IL-17A protein expression from whole blood (Meso Scale Discovery, Rockville, Md.). For treatment of the skin inflammation in these models, each compound or vehicle (methylcellulose in water, 1% w/v, Sigma Aldrich, St. Louis, Mo.) was administered via oral gavage at approximately 08:00 h and 16:00 h daily at various doses selected from 1, 3, 10, and 30 mg/kg.

C57BL/6NTac mice [2] = experiment: Imiquimod-induced skin inflammation, ears and back skin: RORγ-dependent gene expression and ex vivo stimulated whole blood IL-17A; type: in vivo, mouse
Text: as §1

Cc1c(CN2CCN(C(=O)C3CCCC3)[C@@H](C)C2)cc(Cl)cc1NC(=O)CCS(C)(=O)=O [Example 43, (S)—N-(5-chloro-3-((4-(cyclopentanecarbonyl)-3-methylpiperazin-1-yl)methyl)-2-methylphenyl)-3-(methylsulfonyl)propanamide]
imiquimod-induced ear thickening (C57BL/6NTac mice [1]; 10 mg/kg): statistically significant reduction
imiquimod-induced ear thickening (C57BL/6NTac mice [1]; 30 mg/kg): statistically significant reduction
imiquimod-induced ear thickening, versus vehicle (FIG. 1) (C57BL/6NTac mice [1]; FIG. 1, dose not stated): statistically significant reduction
IL17A protein expressed following ex vivo stimulation of whole blood (C57BL/6NTac mice [2]; study A, 10 mg/kg oral): significantly reduced
ear mRNA levels of IL17A, IL17F, or IL22 (C57BL/6NTac mice [2]; study A, 10 mg/kg oral): no significant reduction
IL17F mRNA levels in the ear skin (C57BL/6NTac mice [2]; study B, 10 mg/kg oral): significantly reduced
IL22 mRNA levels in the ear skin (C57BL/6NTac mice [2]; study B, 10 mg/kg oral): significantly reduced
IL17A mRNA levels in the ear skin (C57BL/6NTac mice [2]; study C): reached statistical significance
